In PubChem BioAssay (NCI) one finds GI50 and TGI data, which are given here for eight compounds.

Test systems include 786-0 renal; A498 renal; A549 NSCLC; COLO 205 colon; HCC-2998 colon; HCT-15 colon; M14 melanoma; MDA-MB-231 breast; NCI-H522 lung; SNB-75 CNS.
What all share (experiment): DTP human tumour cell line panel, 48 h

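Dose response: 5 concentrations. Exposure: 48 h. Format: 96-well plates. Endpoint: linear interpolation; highest concentration if not reached. GI50 marks 50% less growth. TGI: concentration producing complete growth inhibition.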

Consider `NCCCCN(Cc1nc2ccccc2[nH]1)[C@H]1CCCc2cccnc21`, for which the GI50 in the assay on 786-0 renal is 21.2 µM; in the assay on A498 renal, 7.81 µM; in the assay on A549 NSCLC it was 15.2 µM; in the assay on COLO 205 colon, 7.65 µM; with HCC-2998 colon it was 16.9 µM; with HCT-15 colon, 24.3 µM. The GI50 was 13.9 µM in the assay with M14 melanoma, 8.88 µM in the assay on MDA-MB-231 breast, 19.8 µM with NCI-H522 lung and 8.53 µM in the assay with SNB-75 CNS. Besides, the TGI with 786-0 renal was over 77.1 µM; in the assay on A498 renal it was over 51.8 µM; in the assay on A549 NSCLC it was 44.4 µM; in the assay on COLO 205 colon, 26.2 µM; in the assay on HCC-2998 colon it was 38.2 µM; in the assay on HCT-15 colon it was over 100 µM. For the same compound, the TGI with M14 melanoma was 30.2 µM; in the assay with MDA-MB-231 breast it was 56.3 µM; with NCI-H522 lung, over 64.8 µM; in the assay with SNB-75 CNS, over 100 µM.

In the case of `COc1ccc(/C=C/C(=O)c2cc3c(N)c(C(=O)Nc4ccccc4)sc3nc2C)cc1`, the GI50 in the assay with 786-0 renal is 0.276 µM; with A498 renal, 0.114 µM; in the assay on A549 NSCLC, 0.273 µM; in the assay with HCC-2998 colon, 0.785 µM; in the assay on HCT-15 colon, 0.205 µM; with M14 melanoma, 0.0907 µM. The results for the GI50 in the assay on MDA-MB-231 breast, with NCI-H522 lung and with SNB-75 CNS were 0.377 µM, 0.113 µM and 0.0933 µM, respectively. Besides, the TGI in the assay with 786-0 renal was over 16 µM; in the assay on A498 renal it was 0.487 µM; in the assay on A549 NSCLC it was over 50 µM; in the assay on HCC-2998 colon, 6.53 µM; in the assay on HCT-15 colon it was 8.53 µM; in the assay on M14 melanoma, over 50 µM. The TGI in the assay with MDA-MB-231 breast is over 31.8 µM; with NCI-H522 lung, 4.56 µM.

Regarding `C=C1C(=O)O[C@H]2[C@H]1CC/C(CNS(=O)(=O)c1cccc3ccccc13)=C\CC[C@@]1(C)O[C@@H]21`, the GI50 with 786-0 renal is 1.61 µM; with A498 renal, 4.85 µM; in the assay on A549 NSCLC it was 11.5 µM; in the assay on COLO 205 colon, 1.73 µM; in the assay with HCC-2998 colon, 2.16 µM; with HCT-15 colon, 1.25 µM. Also, the values for the GI50 with M14 melanoma, in the assay with MDA-MB-231 breast and with NCI-H522 lung were 1.53 µM, 1.53 µM and 1.28 µM, respectively. Further, the TGI with 786-0 renal is 3.27 µM; with A498 renal, 17.2 µM; in the assay on A549 NSCLC, 32.4 µM; in the assay on COLO 205 colon, 3.49 µM; with HCC-2998 colon, 4.87 µM; in the assay with HCT-15 colon, 2.7 µM. In addition, the TGI in the assay on M14 melanoma was determined as 3.32 µM; with MDA-MB-231 breast, 3.4 µM; with NCI-H522 lung, 2.88 µM.

`Clc1nc(Cl)c(Cc2ccccc2)c(Cl)n1`: the TGI in the assay with 786-0 renal is 10.4 µM; in the assay with A549 NSCLC it was 27.5 µM; with COLO 205 colon it was 22.6 µM; with HCC-2998 colon, 66.1 µM; with HCT-15 colon it was 85 µM; in the assay on M14 melanoma, 8.38 µM. Moreover, the results for the TGI in the assay on MDA-MB-231 breast, in the assay with NCI-H522 lung and with SNB-75 CNS were 14.9 µM, 3.04 µM and 22.5 µM, respectively.

In the case of `O=C1C(=O)c2ccccc2C(O)=C1CCCCCCCCC1CCCCC1`, the TGI with 786-0 renal was determined as 18.9 µM; with A549 NSCLC, 23.5 µM; with COLO 205 colon it was 22.7 µM; in the assay on HCC-2998 colon, 24.4 µM; in the assay with HCT-15 colon, 19.2 µM; in the assay with M14 melanoma, 26.2 µM. Moreover, the TGI with MDA-MB-231 breast came to 17.3 µM; in the assay on NCI-H522 lung it was 25.7 µM; in the assay with SNB-75 CNS it was 22.9 µM.

For the compound `OC(CNC1CCCC1)Cn1c2ccccc2c2ccccc21` (configuration not stated), the GI50 with 786-0 renal was 36.1 µM; in the assay on A498 renal, 10.7 µM; with A549 NSCLC it was over 100 µM; with COLO 205 colon, over 100 µM; in the assay on HCC-2998 colon, over 100 µM; in the assay on HCT-15 colon, 80.5 µM. In addition, the GI50 in the assay on M14 melanoma was over 100 µM; in the assay on MDA-MB-231 breast it was 27.7 µM; in the assay on NCI-H522 lung, 20 µM; with SNB-75 CNS, 12.9 µM. The TGI in the assay on 786-0 renal was over 100 µM; with A498 renal, 47.7 µM; with A549 NSCLC, over 100 µM; in the assay on COLO 205 colon, over 100 µM; in the assay with HCC-2998 colon it was over 100 µM; with HCT-15 colon it was over 100 µM. Besides, the TGI in the assay on M14 melanoma is over 100 µM; with MDA-MB-231 breast, over 100 µM; in the assay on NCI-H522 lung, 82.2 µM; in the assay on SNB-75 CNS it was 26.5 µM.

For `COC(=O)c1cc2oc(/C=C3\SC(=S)N(NC(C)=O)C3=O)cc2n1Cc1ccccc1`, the GI50 is 8.2 µM in the assay with 786-0 renal; 8.07 µM in the assay with A498 renal; 5.2 µM with A549 NSCLC; 5.63 µM with COLO 205 colon; 1.54 µM in the assay with HCT-15 colon; 8.04 µM in the assay with M14 melanoma. In addition, the GI50 was 9.02 µM with MDA-MB-231 breast, over 50 µM with NCI-H522 lung and 7.67 µM with SNB-75 CNS. In addition, the TGI in the assay on 786-0 renal worked out at 18.6 µM; in the assay with A498 renal, 16.8 µM; with A549 NSCLC, 17.9 µM; in the assay on COLO 205 colon it was 12.6 µM; in the assay on HCT-15 colon, 8.56 µM; in the assay with M14 melanoma, 16.4 µM. The TGI was 17.4 µM in the assay with MDA-MB-231 breast, over 50 µM with NCI-H522 lung and 25.4 µM in the assay with SNB-75 CNS.

For `CCCN(CCC)C(=O)[C@H](CC)[C@@H]1CC[C@@H](C)[C@@H]([C@H](C)[C@@H](O)[C@@H](C)C(=O)[C@H](CC)C2O[C@]3(C=C[C@@H](O)[C@]4(CC[C@@](C)([C@H]5CC[C@](O)(CC)[C@H](C)O5)O4)O3)[C@H](C)C[C@@H]2C)O1` (some centres not stated), the GI50 in the assay with 786-0 renal is 2.79 µM; with A498 renal it was 2.13 µM; in the assay with A549 NSCLC it was 3.18 µM; in the assay on HCC-2998 colon it was 2.18 µM; with HCT-15 colon, 2.24 µM; in the assay with MDA-MB-231 breast, 1.62 µM. The GI50 in the assay on NCI-H522 lung was 1.82 µM; in the assay on SNB-75 CNS it was 1.73 µM. The TGI came out at 9 µM with 786-0 renal; 5.85 µM in the assay with A498 renal; 26.9 µM in the assay with A549 NSCLC; 5.76 µM with HCC-2998 colon; 5.61 µM with HCT-15 colon; 3.28 µM with MDA-MB-231 breast. The TGI stood at 4.56 µM with NCI-H522 lung and 14.4 µM in the assay with SNB-75 CNS.
